The text below walks through data of ChEMBL document CHEMBL4033744, “Synthesis and biological evaluation of steroidal derivatives bearing a small ring as vitamin D receptor agonists” (Bioorg Med Chem Lett, 2017).

Calls of active or inactive are those of the source. No cut-off for these calls is given here.

The target in the first assay is T1, Vitamin D3 receptor (Homo sapiens) (UniProt P11473).
T1 sequence (whole entry): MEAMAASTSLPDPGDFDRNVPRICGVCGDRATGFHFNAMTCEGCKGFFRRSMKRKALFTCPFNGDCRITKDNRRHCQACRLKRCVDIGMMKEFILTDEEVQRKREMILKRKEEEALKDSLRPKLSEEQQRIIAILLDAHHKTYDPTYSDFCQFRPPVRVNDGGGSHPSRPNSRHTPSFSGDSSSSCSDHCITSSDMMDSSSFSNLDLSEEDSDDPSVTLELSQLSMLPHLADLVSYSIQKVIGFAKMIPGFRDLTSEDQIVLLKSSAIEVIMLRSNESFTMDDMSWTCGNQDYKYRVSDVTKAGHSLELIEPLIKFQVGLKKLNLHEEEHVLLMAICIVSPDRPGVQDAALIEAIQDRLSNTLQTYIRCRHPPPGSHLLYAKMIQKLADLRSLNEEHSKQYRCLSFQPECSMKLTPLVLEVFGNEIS
Nature of the assay: (§1) Agonist activity at vitamin D receptor (unknown origin) expressed in HEK293 cells co-expressing pCMX-RXRalpha and pCMX-beta-galactosidase assessed as induction of receptor transactivation incubated for 16 to 24 hrs by luciferase reporter gene assay. The class given is cell-based. For orientation: Reporter assays use an easily measured gene product as a stand-in for the process of interest.
For the compound `C[C@H](CCC(=O)O)[C@H]1CC[C@H]2[C@@H]3CC[C@@H]4CC(=O)CC[C@]4(C)[C@H]3CC[C@]12C`, the outcome was Active.

In the next assay the target is T2, Vitamin D3 receptor (Homo sapiens, UniProt P11473).
T2 sequence (P11473 whole entry): T1 sequence (whole entry)
Described as §1. Type of assay: cell-based.
With `C[C@H](CCCC(C)(C)O)[C@H]1CC[C@H]2[C@@H]3CCc4cc(O)ccc4[C@H]3CC[C@]12C`, the EC50 amounted to 0.85 µM. The same measure, in the same setting: the same measure for `CC(C)(O)CCC[C@@H]1C[C@@H]2C[C@H]3[C@@H]4CCc5cc(O)ccc5[C@H]4CC[C@]3(C)[C@]12O`: 4.1 µM; for `CC(C)(O)CCC[C@@H]1C[C@@]12CC[C@H]1[C@@H]3CCc4cc(O)ccc4[C@H]3CC[C@@]12C`: 3.7 µM.

In the next assay the target is T1, Vitamin D3 receptor (Homo sapiens). Put plainly: Agonist activity at vitamin D receptor (unknown origin) expressed in HEK293 cells co-expressing pCMX-RXRalpha and pCMX-beta-galactosidase assessed as induction of receptor transactivation incubated for 16 to 24 hrs by luciferase reporter gene assay relative to 3-keto-LCA. Type of assay: cell-based.
Take `CC(C)(O)CCC[C@@H]1C[C@@H]2C[C@H]3[C@@H]4CCc5cc(O)ccc5[C@H]4CC[C@]3(C)[C@]12O`: the result was Active. For the compound `C[C@]12CCC(=O)C[C@H]1CC[C@@H]1[C@@H]2CC[C@@]2(C)[C@H]1C[C@H]1C[C@@H](CCC(=O)O)[C@]12O`, the result was inactive.

`C[C@]12CCC(=O)C[C@H]1CC[C@@H]1[C@@H]2CC[C@@]2(C)[C@H]1CC[C@@]21C[C@@H]1CCC(=O)O`: the outcome was inactive. Still for that read-out and setting: the same measure for `C[C@]12CCC(=O)C[C@H]1CC[C@@H]1[C@@H]2CC[C@@]2(C)[C@H]1CC[C@@]21C[C@H]1CCC(=O)O`: “inactive”; for `CC(C)(O)CCC[C@H]1C[C@@H]2C[C@H]3[C@@H]4CCc5cc(O)ccc5[C@H]4CC[C@]3(C)[C@@]21O`: “Active”. The same measure, in the same setting: the same measure for `CC(C)(O)CCC[C@@H]1C[C@@]12CC[C@H]1[C@@H]3CCc4cc(O)ccc4[C@H]3CC[C@@]12C`: “Active”. Turning to `CC(C)(O)CCC[C@H]1C[C@@]12CC[C@H]1[C@@H]3CCc4cc(O)ccc4[C@H]3CC[C@@]12C`, the outcome was Active. The same measure, in the same setting: under `C[C@]12CCC(=O)C[C@H]1CC[C@@H]1[C@@H]2CC[C@@]2(C)[C@H]1C[C@H]1C[C@H](CCC(=O)O)[C@]12O` stands “inactive”.

The EC50 is the concentration giving half of the maximal effect.
